In patent publication US20220177485A1, “CAMPTOTHECIN DERIVATIVE, PREPARATION METHOD THEREFOR AND APPLICATION THEREOF” (MARINE BIOMEDICAL RESEARCH INSTITUTE OF QINGDAO CO., LTD., priority 2018, published 2022):
Like-named read-outs stand apart in the source and are kept apart here.

Experiments:
[1] = tested on: K562 cells (human chronic myeloid leukemia cells); assay: growth inhibition of tumor cells in vitro, K562; format: cell-based
Source text: (§1) We tested compounds target a variety of tumor cell for the growth inhibition to show its antitumor activity by using the method of the field technicians known. Chooses the tumor cell lines include: A549 cell non-small cell lung cancer cell line (people), K562 cells (human chronic myeloid leukemia cells), NCI-H1975 cells (non-small cell lung adenocarcinoma cancer cell), MDA-MB-231 cells (human breast cancer cells) and HCT-116 cells (human colon cancer cells).

[2] = tested on: A549 cell non-small cell lung cancer cell line; assay: growth inhibition of tumor cells in vitro, A549; format: cell-based, human
Source text: as §1

[3] = molecular target: heat shock protein (HSP90); assay: macromolecular interaction on chip, HSP90; format: binding; conditions: compound fixed on the chip; HSP90 100 nM
Method: (§2) The experimental scheme: 1. Fixed the compounds on the chip:
(§3) Mobile phase were EGF (1 μM), FGF (1 μM), HSP90 (100 nM), FKBP12 (100 nM).
(§4) Detection whether small molecule compounds combined with the provided protein of heat shock protein (HSP90), epidermal growth factor (EGF) and fibroblast growth factor (FGF); and provide relevant data of combined dynamics.

[4] = molecular target: T1, epidermal growth factor (EGF) (Homo sapiens, UniProt P01133); assay: macromolecular interaction on chip, EGF; format: binding; conditions: for KD EGF: compound fixed on the chip, EGF 1 μM
T1 construct: epidermal growth factor (EGF)
T1 sequence (P01133 971-1023 limits assumed, species assumed): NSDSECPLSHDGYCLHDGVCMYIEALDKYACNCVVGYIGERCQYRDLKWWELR
Method: as §2, §3, §4

[5] = molecular target: fibroblast growth factor (FGF); assay: macromolecular interaction on chip, FGF; format: binding; conditions: compound fixed on the chip; FGF 1 μM
Method: as §2, §3, §4

[6] = tested on: MDA-MB-231 cells (human breast cancer cells); assay: growth inhibition of tumor cells in vitro, MDA-MB-231; format: cell-based; conditions: for IC50: Homo sapiens, MDA-MB-231, read-out: IC50 MDA-MB-231
Source text: as §1

[7] = tested on: NCI-H1975 cells (non-small cell lung adenocarcinoma cancer cell); assay: growth inhibition of tumor cells in vitro, NCI-H1975; format: cell-based; conditions: for IC50: Homo sapiens, NCI-H1975, read-out: IC50 NCI-H1975
Source text: as §1

[8] = tested on: HCT-116 cells (human colon cancer cells); assay: cells; format: cell-based; conditions: Homo sapiens, HCT-116, read-out: IC50 HCT-116
Source text: as §1

[9] = Homo sapiens, A549, read-out: IC50 A549, A549 cell line
[10] = K562 cell line, read-out: IC50 K562
[11] = Homo sapiens, A549, A549 cell line, read-out: IC50 A549

Compound	KD HSP90 [3]	KD EGF [4]	melting point	KD FGF [5]	IC50 [1, 10]	IC50 [2, 11]	further results
CC[C@@]1(O)C(=O)OCc2c1cc1n(c2=O)Cc2c-1nc1cc3c(cc1c2-c1ccc(C(C)(C)C)cc1)OCO3 [Compound 37]							IC50 ([1]; K562, read-out: IC50 K562): 785 ± 9.23 nM; IC50 [2, 9]: 387 ± 3.75 nM
CC[C@@]1(O)C(=O)OCc2c1cc1n(c2=O)Cc2c-1nc1cc3c(cc1c2/C=C/c1ccccc1F)OCO3 [Compound 5, 20(S)-7-(2-fluorostyryl)-10,11-methylenedioxy-camptothecin]	No combination	No combination	> 250 °C	No combination			
CC[C@@]1(O)C(=O)OCc2c1cc1n(c2=O)Cc2c-1nc1cc3c(cc1c2-c1cccs1)OCO3 [Compound 26, 20(S)-7-(thiophene-2-yl)-10,11-methylenedioxy-camptothecin]							IC50 [6]: 0.56 ± 0.03 nM; ranking of activity in MDA-MB-231 ([6]; among Table 2 compounds): best activities; IC50 [7]: 0.36 ± 0.06 nM; ranking of activity in NCI-H1975 ([7]; among Table 2 compounds): best activities; IC50 [8]: 102 ± 6.18 nM
CC[C@@]1(O)C(=O)OCc2c1cc1n(c2=O)Cc2c-1nc1cc3c(cc1c2/C=C/c1ccc(F)cc1)OCO3 [Compound 3, 20(S)-7-(4-fluorostyryl)-10,11-methylenedioxy-camptothecin]	No combination	can combine	> 250 °C	No combination	66 ± 3.65 nM		Kd [4]: 5.3 nM
CC[C@@]1(O)C(=O)OCc2c1cc1n(c2=O)Cc2c-1nc1cc3c(cc1c2CCc1ccc(N2CCCCC2)cc1)OCO3			> 250 °C				
CC[C@@]1(O)C(=O)OCc2c1cc1n(c2=O)Cc2c-1nc1cc3c(cc1c2CCc1cc(F)c(N2CCOCC2)c(F)c1)OCO3 [Compound 18, 20(S)-7-(3,5-difluoro-4-(4-morpholino)phenethyl)-10,11-methylenedioxy-camptothecin]			246 to 247 °C		489 ± 6.65 nM		
CC[C@@]1(O)C(=O)OCc2c1cc1n(c2=O)Cc2c-1nc1cc3c(cc1c2CCc1cccc(N2CCOCC2)c1)OCO3 [Compound 14]	No combination	No combination	163 to 165 °C	No combination	1949 ± 15.7 nM	10 to 50 nM	IC50 ([2]; A549 cell line, read-out: IC50 A549): 19 ± 3.47 nM
CC[C@@]1(O)C(=O)OCc2c1cc1n(c2=O)Cc2c-1nc1cc3c(cc1c2-c1cc(C(F)(F)F)cc(C(F)(F)F)c1)OCO3 [Compound 33]					702 ± 8.87 nM	174 ± 8.62 nM	
CC[C@@]1(O)C(=O)OCc2c1cc1n(c2=O)Cc2c-1nc1cc3c(cc1c2CCc1ccccc1N1CCCC1)OCO3 [Compound 16, 20(S)-7-(2-(pyrrolidin-1-yl)phenethyl)-10,11-methylenedioxy-camptothecin]			139 to 140 °C		115 ± 7.6 nM		
CC[C@@]1(O)C(=O)OCc2c1cc1n(c2=O)Cc2c-1nc1cc3c(cc1c2/C=C/c1cccc(F)c1)OCO3 [Compound 4, 20(S)-7-(3-fluorostyryl)-10,11-methylenedioxy-camptothecin]	No combination	No combination	> 250 °C	No combination			
CC[C@@]1(O)C(=O)OCc2c1cc1n(c2=O)Cc2c-1nc1cc3c(cc1c2CCN1CCCCC1)OCO3 [Compound 52, 20(S)-7-(2-(piperidin-1-yl)ethyl)-10,11-methylenedioxy-camptothecin]	No combination	No combination		can combine			Kd [5]: 7.15 nM
CC[C@@]1(O)C(=O)OCc2c1cc1n(c2=O)Cc2c-1nc1cc3c(cc1c2/C=C/C=C/c1ccccc1)OCO3 [Compound 1, 20(S)-7-(styrene-butadiene-yl)-10,11-methylenedioxy-camptothecin]	No combination	No combination	206 to 214 °C	No combination	1652 ± 10.6 nM	763 ± 5.05 nM	
CC[C@@]1(O)C(=O)OCc2c1cc1n(c2=O)Cc2c-1nc1cc3c(cc1c2-c1ccc(F)cc1)OCO3 [Compound 32]	No combination	No combination		No combination	963 ± 7.61 nM		
CC[C@@]1(O)C(=O)OCc2c1cc1n(c2=O)Cc2c-1nc1cc3c(cc1c2-c1ccccc1F)OCO3 [Compound 41]							IC50 ([1]; K562, read-out: IC50 K562): 1037 ± 10.2 nM
CC[C@@]1(O)C(=O)OCc2c1cc1n(c2=O)Cc2c-1nc1cc3c(cc1c2/C=C/c1ccc(F)c(F)c1)OCO3 [Compound 6]	No combination	No combination		can combine	757 ± 8.62 nM	530 ± 7.6 nM	Kd [5]: 8.99 nM
CC[C@@]1(O)C(=O)OCc2c1cc1n(c2=O)Cc2c-1nc1cc3c(cc1c2-c1cccnc1)OCO3 [Compound 22, 20(S)-7-(pyridin-3-yl)-10,11-methylenedioxy-camptothecin]							IC50 [6]: 4.09 ± 0.46 nM; IC50 [7]: 12.6 ± 2.43 nM; IC50 [8]: 0.18 ± 0.03 nM
CC[C@@]1(O)C(=O)OCc2c1cc1n(c2=O)Cc2c-1nc1cc3c(cc1c2-c1ccco1)OCO3 [Compound 27, 20(S)-7-(furan-2-yl)-10,11-methylenedioxy-camptothecin]							IC50 [6]: 1.79 ± 0.14 nM; IC50 [7]: 4.53 ± 0.16 nM; IC50 [8]: 0.25 ± 0.01 nM
CC[C@@]1(O)C(=O)OCc2c1cc1n(c2=O)Cc2c-1nc1cc3c(cc1c2/C=C/C=C/c1ccc(OC)cc1)OCO3 [Compound 2]	No combination	No combination		No combination	2693 ± 9.63 nM	1268 ± 4.65 nM	
CC[C@@]1(O)C(=O)OCc2c1cc1n(c2=O)Cc2c-1nc1cc3c(cc1c2/C=C/c1cc(F)c(F)c(F)c1)OCO3 [Compound 7]	No combination	can combine		can combine	1772 ± 9.68 nM	1904 ± 8.64 nM	Kd [4]: 51.5 nM; Kd [5]: 53.6 nM
CC[C@@]1(O)C(=O)OCc2c1cc1n(c2=O)Cc2c-1nc1cc3c(cc1c2-c1ccc(F)c(F)c1)OCO3 [Compound 42]					181 ± 8.55 nM		
CC[C@@]1(O)C(=O)OCc2c1cc1n(c2=O)Cc2c-1nc1cc3c(cc1c2CCc1ccc(N2CCOCC2)cc1)OCO3 [Compound 8, 20(S)-7-(4-(4-morpholino)phenethyl)-10,11-methylenedioxy-camptothecin]	No combination	No combination		No combination			
CC[C@@]1(O)C(=O)OCc2c1cc1n(c2=O)Cc2c-1nc1cc3c(cc1c2CCc1ccc(N2CCSCC2)cc1)OCO3 [Compound 20, 20(S)-7-(4-(4-thiomorpholino)phenethyl)-10,11-methylenedioxy-camptothecin]			154 to 156 °C		145 ± 4.35 nM		
CC[C@@]1(O)C(=O)OCc2c1cc1n(c2=O)Cc2c-1nc1cc3c(cc1c2CCc1ccc(N2CCOCC2)c(F)c1)OCO3 [Compound 10, 20(S)-7-(3-fluoro-4-(4-morpholino)phenethyl)-10,11-methylenedioxy-camptothecin]	No combination	No combination	> 250 °C	No combination	564 ± 9.85 nM	1223 ± 8.75 nM	
CC[C@@]1(O)C(=O)OCc2c1cc1n(c2=O)Cc2c-1nc1cc3c(cc1c2-c1ccc(F)cc1F)OCO3 [Compound 40]							IC50 ([1]; K562, read-out: IC50 K562): 1168 ± 9.69 nM; IC50 [2, 9]: 836 ± 8.69 nM
CC[C@@]1(O)C(=O)OCc2c1cc1n(c2=O)Cc2c-1nc1cc3c(cc1c2N1CCOCC1)OCO3 [Compound 43, 20(S)-7-morpholino-10,11-methylenedioxy-camptothecin]			> 250 °C				IC50 ([1]; K562, read-out: IC50 K562): 837 ± 9.44 nM
CC[C@@]1(O)C(=O)OCc2c1cc1n(c2=O)Cc2c-1nc1cc3c(cc1c2CCc1ccc(N2CCCC2)cc1)OCO3 [Compound 9, 20(S)-7-(4-(pyrrolidin-1-yl)phenethyl)-10,11-methylenedioxy-camptothecin]	No combination	No combination	205 to 207 °C	No combination	1366 ± 12.5 nM	1522 ± 10.5 nM	
CC[C@@]1(O)C(=O)OCc2c1cc1n(c2=O)Cc2c-1nc1cc3c(cc1c2CCc1cc(F)c(N2CCCC2)c(F)c1)OCO3			> 250 °C				
CC[C@@]1(O)C(=O)OCc2c1cc1n(c2=O)Cc2c-1nc1cc3c(cc1c2-c1cnn(C2CCCCO2)c1)OCO3 (some centres unmarked) [Compound 28]							IC50 [6]: 1.56 ± 0.14 nM; IC50 [7]: 7.97 ± 0.52 nM; IC50 [8]: 0.78 ± 0.06 nM
CC[C@@]1(O)C(=O)OCc2c1cc1n(c2=O)Cc2c-1nc1cc3c(cc1c2-c1ccccc1)OCO3 [Compound 36]					1327 ± 8.96 nM	422 ± 10.3 nM	
CC[C@@]1(O)C(=O)OCc2c1cc1n(c2=O)Cc2c-1nc1cc3c(cc1c2-c1ccc2c(c1)OCO2)OCO3 [Compound 38]							IC50 ([1]; K562, read-out: IC50 K562): 202 ± 7.32 nM; IC50 [2, 9]: 282 ± 7.77 nM
